The record followed here is patent publication US7413895B2, “DNA encoding neutral amino acid transporter” (Japan Science and Technology Corporation, priority 1998, dated 2008).

Broadly, the Km is the concentration of substrate that gives half-maximal velocity.

One assay deals with Mouse sarcoma 180 cells. The experiment in a line: Survival of ICR mouse after intraperitoneal transplantation of mouse sarcoma 180 cells. The format is in vivo. The conditions noted are these: male ICR mouse, sarcoma 180 cells intraperitoneally transplanted, 300 mg/kg for ten days, observation for 19 days. The method, then:
Mouse sarcoma 180 cells were intraperitoneally transplanted (1×10^6) to male ICR mouse and, from the next day of the transplantation, BCH which was a inhibitor for the amino acid transporter, D-Leu having a inhibiting effect on amino acid transporter and D-Ala having no inhibiting action thereon were administered at the dose of 300 mg/kg for ten days. After the transplantation, it was confirmed every day whether the mouse was dead or alive.

The target of assay [1] is T1, human amino acid transporter LAT1 (Homo sapiens, UniProt Q01650). The assay is described as follows: Incorporation of 14C-labeled amino acids into oocytes co-expressing human LAT1 and human 4F2hc. The note with it: for incorporation of 14C-labeled amino acid into oocytes: oocytes co-expressing human LAT1 and human 4F2hc, 14C-labeled substrate 50 μM, 30 minutes; for incorporation in a cell in which human LAT1 and human 4F2hc are co-expressed: summary statement of the disclosure. It counts as cell-based. Further details: expressed in transfected cells.
T1 sequence (Q01650 whole entry): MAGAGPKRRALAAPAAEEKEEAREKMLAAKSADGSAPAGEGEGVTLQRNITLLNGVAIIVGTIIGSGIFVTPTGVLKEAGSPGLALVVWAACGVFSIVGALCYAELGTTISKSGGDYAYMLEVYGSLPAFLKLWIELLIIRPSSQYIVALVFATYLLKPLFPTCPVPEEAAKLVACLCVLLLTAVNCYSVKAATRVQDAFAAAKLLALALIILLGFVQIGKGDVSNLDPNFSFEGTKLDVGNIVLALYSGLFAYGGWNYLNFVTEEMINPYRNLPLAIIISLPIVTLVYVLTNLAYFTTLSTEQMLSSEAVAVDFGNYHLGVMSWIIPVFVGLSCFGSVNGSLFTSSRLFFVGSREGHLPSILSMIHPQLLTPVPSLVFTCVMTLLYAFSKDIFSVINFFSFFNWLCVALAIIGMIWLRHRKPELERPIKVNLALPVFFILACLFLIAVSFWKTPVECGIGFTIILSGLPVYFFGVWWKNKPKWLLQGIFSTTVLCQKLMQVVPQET
T1 sequence (as listed by the source partner): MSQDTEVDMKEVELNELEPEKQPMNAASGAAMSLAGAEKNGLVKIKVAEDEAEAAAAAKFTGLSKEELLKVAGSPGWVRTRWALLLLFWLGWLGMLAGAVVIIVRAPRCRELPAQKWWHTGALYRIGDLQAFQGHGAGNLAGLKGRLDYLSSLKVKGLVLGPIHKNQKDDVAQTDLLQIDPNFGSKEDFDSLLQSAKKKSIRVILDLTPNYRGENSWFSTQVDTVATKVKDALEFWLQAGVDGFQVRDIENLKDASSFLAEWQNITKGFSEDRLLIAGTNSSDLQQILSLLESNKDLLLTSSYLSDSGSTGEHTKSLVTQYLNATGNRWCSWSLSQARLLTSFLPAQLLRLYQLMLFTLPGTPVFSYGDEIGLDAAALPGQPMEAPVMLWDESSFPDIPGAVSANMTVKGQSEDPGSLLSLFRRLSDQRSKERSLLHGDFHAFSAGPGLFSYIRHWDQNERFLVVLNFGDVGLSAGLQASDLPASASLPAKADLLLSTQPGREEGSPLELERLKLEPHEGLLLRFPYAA

The test system of assay [2] is rat liver cell line where LAT1 was highly expressed. The assay is described as follows: Cell proliferation of cultured rat liver cell line, Cell Counting Kit-8. The format is cell-based. The conditions noted are these: 20 mM added to William's medium, incubation for 48 hours. The method, then: A rat liver cell line where LAT1 was highly expressed was incubated on a William's medium, 20 mM of D-leucine or BCH which suppressed the incorporation mediated by LAT1 were added to the medium and, by means of an incubation for 48 hours, cell numbers were investigated using a Cell Counting Kit-8 (manufactured by Dojindo Laboratories). The cell numbers were measured as an absorption at 450 nm (O.D. 450).

Assay [3] has as its target T1, human amino acid transporter LAT1. The experiment in a line: Competitive antagonism test: incorporation of 14C-labeled leucine or phenylalanine into oocytes co-expressing human LAT1 and human 4F2hc in the presence of test substance. The format is cell-based. Set-up: expressed in transfected cells. The conditions noted are these: test substance 2 mM, 30 minutes; for inhibition of incorporation of 14C-labeled leucine mediated by the human LAT1: 14C-labeled leucine 20 μM, choline chloride uptake solution.

The test system of assay [4] is T24 cells derived from human bladder cancer. The assay is described as follows: Inhibition of 14C-leucine incorporation by T24 cells by amino acids and similar substances. It counts as cell-based. The conditions noted are these: 14C-leucine 20 μM, 2 mM unlabeled compound.
For assay [5], the target named is T2, rat neutral amino acid transporter LAT1 (Rattus norvegicus, UniProt Q63016). The assay is described as follows: Incorporation of radiolabeled amino acids into oocytes injected with rat LAT1 and rat 4F2hc cRNA. The format is cell-based. Set-up: expressed in transfected cells; host or cells: oocytes (Xenopus laevis by the cited method of Kanai and Hediger) injected with rat LAT1 cRNA and rat 4F2hc cRNA. The note with it: 14C compounds as substrates. The method, then: Thus, the oocytes into which rat LAT1 gene cRNA, rat 4F2hc gene cRNA or rat LAT1 gene cRNA/rat 4F2hc gene cRNA was injected were incubated for 30 minutes in an uptake solution containing ^14C-leucine (50 μM) and incorporation of radioactivity into the oocytes was measured.
T2 sequence (Q63016 whole entry): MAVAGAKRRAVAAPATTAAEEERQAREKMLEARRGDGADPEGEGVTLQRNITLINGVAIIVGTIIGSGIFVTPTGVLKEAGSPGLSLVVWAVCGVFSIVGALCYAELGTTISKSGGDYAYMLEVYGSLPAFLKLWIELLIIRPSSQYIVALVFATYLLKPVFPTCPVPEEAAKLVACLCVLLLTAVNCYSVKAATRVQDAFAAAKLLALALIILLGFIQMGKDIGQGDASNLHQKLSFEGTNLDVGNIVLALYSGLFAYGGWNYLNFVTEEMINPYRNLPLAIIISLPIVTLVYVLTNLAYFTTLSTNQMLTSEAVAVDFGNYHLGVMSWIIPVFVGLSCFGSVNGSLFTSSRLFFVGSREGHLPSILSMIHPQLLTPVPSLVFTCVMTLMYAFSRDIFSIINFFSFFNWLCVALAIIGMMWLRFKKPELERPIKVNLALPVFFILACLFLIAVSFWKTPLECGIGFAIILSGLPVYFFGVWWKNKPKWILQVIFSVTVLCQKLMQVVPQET
T2 sequence (Q794F9 whole entry partner): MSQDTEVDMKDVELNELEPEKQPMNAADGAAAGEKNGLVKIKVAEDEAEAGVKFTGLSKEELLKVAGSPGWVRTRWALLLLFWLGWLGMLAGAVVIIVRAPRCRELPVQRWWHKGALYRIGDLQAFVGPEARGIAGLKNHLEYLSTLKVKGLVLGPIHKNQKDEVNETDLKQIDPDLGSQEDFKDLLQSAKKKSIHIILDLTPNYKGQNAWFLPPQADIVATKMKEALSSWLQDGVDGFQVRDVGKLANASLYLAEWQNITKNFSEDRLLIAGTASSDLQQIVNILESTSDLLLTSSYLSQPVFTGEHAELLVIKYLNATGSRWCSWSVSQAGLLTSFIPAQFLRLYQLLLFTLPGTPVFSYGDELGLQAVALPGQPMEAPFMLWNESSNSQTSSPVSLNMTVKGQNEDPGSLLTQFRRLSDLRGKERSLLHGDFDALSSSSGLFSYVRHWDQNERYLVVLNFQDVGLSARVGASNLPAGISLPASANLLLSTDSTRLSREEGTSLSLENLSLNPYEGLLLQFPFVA
As a substrate however, various radiolabeled compounds were used in place of ^14C-leucine.

The target in assay [6] is T2, rat neutral amino acid transporter LAT1. The experiment in a line: Inhibition of 14C-leucine incorporation into oocytes injected with rat LAT1 and rat 4F2hc cRNA by amino acids and similar substances. It counts as cell-based. Further details: expressed in transfected cells; host or cells: oocytes (Xenopus laevis by the cited method of Kanai and Hediger) injected with rat LAT1 cRNA and rat 4F2hc cRNA. The conditions noted are these: rat LAT1/rat 4F2hc oocytes; 14C-leucine 20 μM, 2 mM unlabeled compound, choline uptake solution.

Assay [7] has the same target. The note with it: read-out: Km value; leucine as substrate; oocytes injected with rat LAT1 and rat 4F2hc cRNA.
The subject of assay [8] is T24 cells derived from human bladder cancer. The assay is described as follows: Michaelis-Menten kinetic test for the incorporation of leucine by T24 cells. It counts as cell-based. The note with it: leucine as substrate. The procedure:
T24 cells derived from human bladder cancer were incubated and maintained in an Eagle's minimal essential medium containing 10% of fetal bovine serum. A test for the incorporation of amino acids into T24 cells was carried out by incubating the T24 cells on a 24-well plate and finished when the state became confluent. The amino acid incorporation test was started by removing the incubating solution and adding a Dulbecco's PBS (manufactured by Gibco) containing ^14C-amino acid and finished by removing it, cooling with ice and washing with a Dulbecco's PBS. After washing, the above was dissolved in 0.1N NaOH and the radioactivity was measured by a liquid scintillation counter.
A Michaelis-Menten kinetic test was carried out for the incorporation of leucine by T24 cells. The Michaelis-Menten kinetic test was conducted by investigating the changes in the incorporated rate of leucine by the difference in the concentration of the substrate leucine.

The target of assay [9] is T1, human amino acid transporter LAT1. The note with it: read-out: Michaelis constant (Km); leucine as substrate; Xenopus laevis oocytes co-expressing human LAT1 and human 4F2hc.

“Also recorded” adds a separate entry of the source.

For `C[C@@H](N)C(=O)O` [D-Ala], the survival effect result in the assay with Mouse sarcoma 180 cells was “No survival effect”.

Regarding `CC(C)C[C@@H](N)C(=O)O` [D-leucine], in assay [1], the “incorporation of 14C-labeled amino acid into oocytes” value was “incorporated”. Also, in the assay with Mouse sarcoma 180 cells, the survival effect result is given as “significant survival effect”. Besides, in [2], the “cell numbers (O.D. 450) compared with control group” value is reported as “a reduction in the cell numbers was noted”.

Take `N[C@H](Cc1ccccc1)C(=O)O` [D-phenylalanine]: in [1], the “incorporation of 14C-labeled amino acid into oocytes” value is given as “incorporated”.

As to `N[C@@H](Cc1ccc(O)c(O)c1)C(=O)O` [L-DOPA], in assay [1], the “incorporation in a cell in which human LAT1 and human 4F2hc are co-expressed” value (shortened to “incorporation in a cell”) is “confirmed”. The “inhibition of incorporation of 14C-labeled phenylalanine into oocytes” value in [3] (14C-labeled phenylalanine instead of leucine, choline uptake solution) is “strongly inhibited”.

Consider `N=C(N)NCCC[C@H](N)C(=O)O` [arginine], for which the “inhibition of incorporation of 14C-labeled leucine mediated by the human LAT1” value (shortened to “inhibition of incorporation … by the human LAT1”) in assay [3] was “not affected at all”.

On to `NC(=O)C[C@H](N)C(=O)O` [asparagine], for which the “incorporation in a cell” value in assay [1] was “significant incorporation”.

Turning to `N[C@@H](CC(=O)O)C(=O)O` [aspartic acid], the “inhibition of incorporation … by the human LAT1” value in [3] is reported as “not affected at all”.

In the case of `N[C@@H](CS)C(=O)O` [cysteine], in assay [1], the “incorporation in a cell” value is “significant incorporation”. Also, the “inhibition of incorporation of 14C-leucine by T24 cells” value (from here on “inhibition … by T24 cells”) in [4] is on record as “strong cis-inhibiting effect”.

For the compound `N[C@@H](CCC(=O)O)C(=O)O` [glutamic acid], the “inhibition of incorporation … by the human LAT1” value in [3] was “not affected at all”.

Turning to `NC(=O)CC[C@H](N)C(=O)O` [glutamine], in assay [1], the “incorporation in a cell” value was “significant incorporation”.

With `N[C@@H](Cc1c[nH]cn1)C(=O)O` [histidine], in assay [1], the “incorporation of 14C-labeled amino acid into oocytes” value is on record as “significantly incorporated”; the “incorporation in a cell” value was “very strong incorporation”. The “incorporation of radiolabeled substrate into the oocytes” value in [5] is “incorporation into the oocytes was noted”. For the same compound, the “inhibition of incorporation of 14C-leucine mediated by LAT1” value (“inhibition of incorporation … by LAT1” below) in assay [6] is listed as “strongly inhibited”. Besides, the “inhibition … by T24 cells” value in assay [4] is “strong cis-inhibiting effect”. In addition, the “inhibition of incorporation … by the human LAT1” value in [3] is recorded as “strongly inhibited”.

`CC[C@H](C)[C@H](N)C(=O)O` [isoleucine]: in assay [1], the “incorporation of 14C-labeled amino acid into oocytes” value is on record as “significantly incorporated”; the “incorporation in a cell” value was “very strong incorporation”. In addition, the “incorporation of radiolabeled substrate into the oocytes” value in assay [5] is “incorporation into the oocytes was noted”. In [6], the “inhibition of incorporation … by LAT1” value was “strongly inhibited”. In addition, the “inhibition … by T24 cells” value in assay [4] is “strong cis-inhibiting effect”. In assay [3], the “inhibition of incorporation … by the human LAT1” value was “strongly inhibited”.

Take `CC(C)C[C@H](N)C(=O)O` [leucine]: the Michaelis-Menten constant (Km) in assay [7] was about 24 µM. For the same compound, in assay [1], the “incorporation of 14C-labeled amino acid into oocytes” value was “large incorporation; also recorded: significantly incorporated”; the “incorporation in a cell” value is listed as “very strong incorporation”. Moreover, the “incorporation of radiolabeled substrate into the oocytes” value in assay [5] is listed as “big incorporation; also recorded: incorporation into the oocytes was noted”. Besides, the “inhibition of incorporation … by LAT1” value in assay [6] was “strongly inhibited”. In addition, the “inhibition … by T24 cells” value in assay [4] was “strong cis-inhibiting effect”. In assay [8], the Km was found to be 100 µM and the “Vmax value of leucine incorporation” value is 23,870 pmol/mg protein/minute. In addition, in assay [3], the “inhibition of incorporation … by the human LAT1” value is listed as “strongly inhibited”. In addition, the Km in [9] was about 21 µM.

As for `NCCCC[C@H](N)C(=O)O` [lysine], the “inhibition of incorporation … by the human LAT1” value in assay [3] is listed as “not affected at all”.

Consider `N[C@@H](Cc1ccc(N(CCCl)CCCl)cc1)C(=O)O` [melphalan], for which, in assay [6], the “inhibition of incorporation … by LAT1” value was “inhibited”.

Turning to `CSCC[C@H](N)C(=O)O` [methionine], in assay [1], the “incorporation of 14C-labeled amino acid into oocytes” value was “significantly incorporated”; the “incorporation in a cell” value is “very strong incorporation”. Besides, the “incorporation of radiolabeled substrate into the oocytes” value in [5] was “incorporation into the oocytes was noted”. Further, the “inhibition of incorporation … by LAT1” value in assay [6] is “strongly inhibited”. In [4], the “inhibition … by T24 cells” value was “strong cis-inhibiting effect”. The “inhibition of incorporation … by the human LAT1” value in assay [3] was “strongly inhibited”.

Consider `N[C@@H](Cc1ccccc1)C(=O)O` [phenylalanine], for which, in [1], the “incorporation of 14C-labeled amino acid into oocytes” value was “significantly incorporated”; the “incorporation in a cell” value is “very strong incorporation”. For the same compound, in [5], the “incorporation of radiolabeled substrate into the oocytes” value is “incorporation into the oocytes was noted”. The “inhibition of incorporation … by LAT1” value in assay [6] is “strongly inhibited”. Also, the “inhibition … by T24 cells” value in assay [4] was “strong cis-inhibiting effect”. For the same compound, the “inhibition of incorporation … by the human LAT1” value in assay [3] is listed as “strongly inhibited”.

As to `C[C@@H](O)[C@H](N)C(=O)O` [threonine], the “incorporation in a cell” value in assay [1] is listed as “significant incorporation”.

Take `N[C@@H](Cc1cc(I)c(Oc2cc(I)c(O)c(I)c2)c(I)c1)C(=O)O` [thyroxin]: in assay [6], the “inhibition of incorporation … by LAT1” value is reported as “inhibited”.

In the case of `N[C@@H](Cc1c[nH]c2ccccc12)C(=O)O` [tryptophan], in [1], the “incorporation of 14C-labeled amino acid into oocytes” value is recorded as “significantly incorporated”; the “incorporation in a cell” value was “very strong incorporation”. Moreover, the “incorporation of radiolabeled substrate into the oocytes” value in assay [5] is recorded as “incorporation into the oocytes was noted”. In addition, in [6], the “inhibition of incorporation … by LAT1” value was “strongly inhibited”. In assay [4], the “inhibition … by T24 cells” value is given as “strong cis-inhibiting effect”. Moreover, the “inhibition of incorporation … by the human LAT1” value in assay [3] was “strongly inhibited”.

As for `N[C@@H](Cc1ccc(O)cc1)C(=O)O` [tyrosine], in [1], the “incorporation of 14C-labeled amino acid into oocytes” value is “significantly incorporated”; the “incorporation in a cell” value is “very strong incorporation”. In assay [5], the “incorporation of radiolabeled substrate into the oocytes” value is reported as “incorporation into the oocytes was noted”. Besides, in [6], the “inhibition of incorporation … by LAT1” value was “strongly inhibited”. Also, in assay [4], the “inhibition … by T24 cells” value is listed as “strong cis-inhibiting effect”. In addition, the “inhibition of incorporation … by the human LAT1” value in [3] is on record as “strongly inhibited”.

For the compound `CC(C)[C@H](N)C(=O)O` [valine], in assay [1], the “incorporation of 14C-labeled amino acid into oocytes” value is given as “significantly incorporated”; the “incorporation in a cell” value was “very strong incorporation”. In assay [5], the “incorporation of radiolabeled substrate into the oocytes” value is “incorporation into the oocytes was noted”. Moreover, in assay [6], the “inhibition of incorporation … by LAT1” value is recorded as “strongly inhibited”. Besides, the “inhibition … by T24 cells” value in assay [4] is “strong cis-inhibiting effect”. The “inhibition of incorporation … by the human LAT1” value in assay [3] is “strongly inhibited”.
